Measured values published in patent US11691992B2 (Anacor Pharmaceuticals, Inc., priority 2017, dated 2023).
Like-named read-outs stand apart in the source and are kept apart here.

Assays:
Assay type in all cases: cell-based
[1] = test system: promastigote forms of L. major; experiment: Leishmania major promastigote growth inhibition assay (Alamar Blue); details: promastigotes, 44 hours + 4 hours Alamar Blue, read-out: IC50: I Org. promastigote Growth L. major, 2 d
From the text: Example 108. Leishmania major Promastigote Growth Inhibition Assay
The promastigote assay is a microtiter plate drug sensitivity prescreen assay used to determine antileishmanial activity of candidate drugs against promastigote forms of L. major. (Shadow et al., PLOS Neglected Tropical Diseases, 2009, e311.) Alamar Blue, or resazurin, is a non-fluorescent indicator dye that is converted to bright red-fluorescent resorufin via the activity of mitochondrial reductases. As the activity of mitochondrial reductases is reduced in cells that are dead or dying, and the intensity of the fluorescence is relative to cell number, a test compound that kills or inhibits growth of a particular target cell, such as L. major, will result in a lower production of fluorescent signal. Pre-dosed microtiter drug plates for use in the promastigote drug prescreen assay were produced using sterile 384-well black optical bottom tissue culture plates (Nunc Cat #12-565-344). Candidate drugs were diluted in dimethyl sulfoxide in four 96-well plates to either 10,000 ng/ml or 1,000 ng/ml, and 4.25 μL of diluted drug was subsequently dispensed into each well of a 384-well plate. Duplicate 384 well plates were made at each test concentration (10,000 ng/mL and 1,000 ng/mL) and amphotericin B was used as a batch control. The Tecan EVO Freedom liquid handling system (Tecan US, Inc., Durham, N.C.) was used to produce all drug assay plates and conduct all pipetting operations for this assay. L. major parasites were cultured in Schneider's medium (Lonza Cat #04-351Q) supplemented with 20% heat inactivated FBS (Invitrogen Cat #16140-089). Promastigotes in early log growth phase were harvested from culture, counted, suspended at 1.32×10^5 cells/mF and 5,000 promastigotes were dispensed into each well of the 384 well plate in a volume of 38.8 μL. The 384 well plates were subsequently incubated at 28° C. for 44 hours. 8.4 μF of Alamar Blue (Promega, Cat #G8081) was added to each well, the plates were subsequently incubated at 28° C. and 5% CO2 for 4 hours and then examined for the relative fluorescence units (RFU) per well using the Tecan Genios Plus (Tecan US, Inc., Durham, N.C.) with excitation set at 560 nm and emission set at 590 nm. The relative fluorescence from each well was used to determine the percent growth inhibition of each candidate compound tested. Compounds with 50% or greater inhibition of growth were selected for further analysis to determine IC50 values.

[2] = test system: IL3000 T. congolense (drug sensitive) strain; experiment: In vitro Alamar Blue 72 h drug sensitivity assay for T. congolense
Protocol: Example 106. In Vitro Alamar Blue 72 h Drug Sensitivity Assay for T. congolense
Compounds were tested in vitro for chemotherapeutic potency against the IL3000 T. congolense (drug sensitive) strain, using the Alamar Blue assay with several modifications. Test compounds were prepared as 10 mg/mL DMSO stocks for each assay run. Compounds were assayed in at least three separate, independent test runs and an 11-point dilution curve was used to determine the IC50 values. Bloodstream form trypanosomes were supported in HMI media containing 20% bovine serum and were incubated with test compounds for 69 h at 34° C. in a humidified atmosphere containing 5% CO2. Thereafter, 10 μL of Resazurin dye (12.5 mg in 100 mL of phosphate buffered saline, Sigma-Aldrich, Buchs, Switzerland) were added for an additional 3 h. Plates were then read using a fluorescent plate reader (Spectramax, Gemini XS, Bucher Biotec, Basel, Switzerland) using an excitation wavelength of 536 nm and an emission wavelength of 588 nm. Data points were averaged to generate sigmoidal dose-response curves and IC50 values were determined using Softmax Pro 5.2 software.

[3] = test system: bloodstream forms of T. b. rhodesiense STIB 900; experiment: T. brucei rhodesiense STIB 900 growth inhibition assay; details: Trypanosoma brucei, 72 h
From the text: Example 110. T. brucei rhodesiense STIB 900 Growth Inhibition Assay
The parasite strain used in this assay was isolated in 1982 from a human patient in Tanzania and after several mouse passages cloned and adapted to axenic culture conditions, ((a) Baltz, T., D. Baltz, C. Giroud, and J. Crockett. EMBO Journal, 1985, 4:1273-1277. (b) Thuita, J. K., S. M. Karanja, T. Wenzler, R. E. Mdachi, J. M. Ngotho, J. M. Kagira, R. Tidwell, and R. Brun. Acta Tropica 2008, 108:6-10.) Minimum Essential Medium (50 μl) supplemented with 25 mM HEPES, 1 g/l additional glucose, 1% MEM non-essential amino acids (100×), 0.2 mM 2-mercaptoethanol, 1 mM Na-pyruvate and 15% heat inactivated horse serum was added to each well of a 96-well microtiter plate. Serial drug dilutions of seven 3-fold dilution steps covering a range from 90 to 0.123 μg/ml were prepared. Then 10^4 bloodstream forms of T. b. rhodesiense STIB 900 in 50 μl was added to each well and the plate incubated at 37° C. under a 5% CO2 atmosphere for 72 h. 10 μl Alamar Blue (resazurin, 12.5 mg in 100 ml double-distilled water) was then added to each well and incubation continued for a further 2-4 h, (Raz, B., M. Iten, Y. Grether-Buhler, R. Kaminsky, and R. Brun. Acta Trap 1997, 68:139-47.) Then the plates were read with a Spectramax Gemini XS microplate fluorometer (Molecular Devices Cooperation, Sunnyvale, Calif., USA) using an excitation wave length of 536 nm and an emission wave length of 588 nm. Data were analyzed using the microplate reader software Softmax Pro (Molecular Devices Cooperation, Sunnyvale, Calif., USA).

[4] = test system: L. infantum MHOM/MA(BE)/67 amastigotes in primary peritoneal mouse macrophages; experiment: Leishmania infantum intracellular amastigote assay in mouse macrophages; details: Macrophage, 120 h
Protocol: Example 111. Leishmania infantum Intracellular Amastigote Assay in Mouse Macrophages
L. infantum MHOM/MA(BE)/67 amastigotes were collected from the spleen of an infected donor hamster and used to infect primary peritoneal mouse macrophages. (Kaiser, M., Maes, L., Tadoori, L. P., Spangenberg, T., Ioset, J.-R. J. Biomol. Screen. 2015 20(5), 634-35.) To determine in vitro antileishmanial activity, 3×10^4 macrophages were seeded in each well of a 96-well plate. Culture medium was RPMI-1640 supplemented with L-glutamine (20 mM), 16.5 mM sodium hydrogen carbonate, and 10% fetal calf serum (FCS). After 2 d of outgrowth, 5×10^5 amastigotes/well were added and incubated for 2 h at 37° C. Prediluted samples to be tested were subsequently added, and the plates were further incubated for 5 d at 37° C. and 5% CO2. Total parasite burdens in the well were microscopically assessed after Giemsa staining and expressed as a percentage of the total burden in the blank controls without compound. In treated wells with high amastigote burdens, an overall estimate of the total burden per well was made without discrimination between the number of infected macrophages and the number of amastigotes per infected cell. In treated wells with low burdens, exact counting was performed. The 50% inhibitory concentrations (IC50s) were then generated for each dose response test using GraphPad Prism (GraphPad Software Inc., San Diego, Calif.) using the nonlinear regression (sigmoidal dose-response/variable slope) equation.

[5] = Trypanosoma congolense; read-out: inhibition of T. congolense IL-3000 growth at a concentration of 1.0 μM (classes D, E)
[6] = bloodstream forms, Alamar Blue, protocol of Example 110, read-out: IC50: I Org. Growth T. brucei rhodesiense STIB 900, 3 d
[7] = amastigotes in primary peritoneal mouse macrophages, 5 d, Giemsa staining, read-out: Inhibition of Organism Growth in Leishmania infantum MHOM/MA/BE/67, 5 d

SMILES	IC50 [4, 7]	IC50 [1]	inhibition at 1 µM [2, 5]	IC50 [3, 6]	also measured
CCn1nnc(C(=O)Nc2ccc3c(c2)B(O)OC3)c1C [Example 46, 1-ethyl-N-(1-hydroxy-1,3-dihydrobenzo[c][1,2]oxaborol-6-yl)-5-methyl-1H-1,2,3-triazole-4-carboxamide]		2510 to 20000 nM			
O=C(Nc1ccc2c(c1)B(O)OC2)c1nnn(CC2CCC2)c1C(F)(F)F [Example 47, 1-(cyclobutylmethyl)-N-(1-hydroxy-1,3-dihydrobenzo[c][1,2]oxaborol-6-yl)-5-(trifluoromethyl)-1H-1,2,3-triazole-4-carboxamide]		< 600 nM			
Cn1nc(-c2cccnc2)nc1C(=O)Nc1ccc2c(c1)B(O)OC2 [Example 78b, N-(1-hydroxy-1,3-dihydrobenzo[c][1,2]oxaborol-6-yl)-1-methyl-3-(pyridin-3-yl)-1H-1,2,4-triazole-5-carboxamide]					inhibition at 1 µM ([2]; Trypanosoma congolense, read-out: inhibition of T. congolense IL-3000 growth at a concentration of 1.0 μM (classes D, E)): > 75%; IC50 ([3]; read-out: IC50: I Org. Growth T. brucei rhodesiense STIB 900, 3 d [uM]): 0.31 to 10 µM; IC50 ([4]; read-out: Inhibition of Organism Growth in Leishmania infantum MHOM/MA/BE/67, 5 d [uM]): 20 to 100 µM
Cn1nc(C(=O)Nc2ccc3c(c2)B(O)OC3(C)C)nc1-c1ccccn1 [Example 79]	20 to 100 µM		> 75%		IC50 ([3]; RHODESIENSE|STIB900, bloodstream forms, Alamar Blue, protocol of Example 110, read-out: IC50: I Org. Growth T. brucei rhodesiense STIB 900, 3 d): 0.31 to 10 µM

More lines, main results first:

IC50 [4, 7]	SMILES	IC50 [1]	inhibition at 1 µM [2, 5]	IC50 [3, 6]	also measured
3 to 19.9 µM	Cn1nc(C(=O)Nc2ccc3c(c2)B(O)OC3)nc1-c1ncccc1Cl [Example 76, 5-(3-Chloropyridin-2-yl)-N-(1-hydroxy-1,3-dihydrobenzo[c][1,2]oxaborol-6-yl)-1-methyl-1H-1,2,4-triazole-3-carboxamide]		> 75%	0.1 to 0.3 µM	
< 3 µM	COc1cccc(-c2nc(C(=O)Nc3ccc4c(c3)B(O)OC4)nn2C)n1 [Example 75, N-(1-hydroxy-1,3-dihydrobenzo[c][1,2]oxaborol-6-yl)-5-(6-methoxypyridin-2-yl)-1-methyl-1H-1,2,4-triazole-3-carboxamide]		> 75%	< 0.1 µM	
